Source: patent US10870647B2, “Imidazopyridine derivative, method for preparing same, and pharmaceutical composition containing same as active ingredient for preventing or treating cancer” (DAEGU-GYEONGBUK MEDICAL INNOVATION FOUNDATION, priority 2016, dated 2020)

How the values were obtained:
Assay in all cases: Kinase selectivity, scanMAX Kinase assay panel (DiscoverX), % control at 1 uM
Format in all cases: binding
[1] = target: T1, scanMAX Kinase assay panel (Homo sapiens, UniProt O75385); conditions: ULK1; 1 uM; read-out: Percent Control (%)
T1 construct: purchased DiscoverX
T1 sequence (O75385 1-1050): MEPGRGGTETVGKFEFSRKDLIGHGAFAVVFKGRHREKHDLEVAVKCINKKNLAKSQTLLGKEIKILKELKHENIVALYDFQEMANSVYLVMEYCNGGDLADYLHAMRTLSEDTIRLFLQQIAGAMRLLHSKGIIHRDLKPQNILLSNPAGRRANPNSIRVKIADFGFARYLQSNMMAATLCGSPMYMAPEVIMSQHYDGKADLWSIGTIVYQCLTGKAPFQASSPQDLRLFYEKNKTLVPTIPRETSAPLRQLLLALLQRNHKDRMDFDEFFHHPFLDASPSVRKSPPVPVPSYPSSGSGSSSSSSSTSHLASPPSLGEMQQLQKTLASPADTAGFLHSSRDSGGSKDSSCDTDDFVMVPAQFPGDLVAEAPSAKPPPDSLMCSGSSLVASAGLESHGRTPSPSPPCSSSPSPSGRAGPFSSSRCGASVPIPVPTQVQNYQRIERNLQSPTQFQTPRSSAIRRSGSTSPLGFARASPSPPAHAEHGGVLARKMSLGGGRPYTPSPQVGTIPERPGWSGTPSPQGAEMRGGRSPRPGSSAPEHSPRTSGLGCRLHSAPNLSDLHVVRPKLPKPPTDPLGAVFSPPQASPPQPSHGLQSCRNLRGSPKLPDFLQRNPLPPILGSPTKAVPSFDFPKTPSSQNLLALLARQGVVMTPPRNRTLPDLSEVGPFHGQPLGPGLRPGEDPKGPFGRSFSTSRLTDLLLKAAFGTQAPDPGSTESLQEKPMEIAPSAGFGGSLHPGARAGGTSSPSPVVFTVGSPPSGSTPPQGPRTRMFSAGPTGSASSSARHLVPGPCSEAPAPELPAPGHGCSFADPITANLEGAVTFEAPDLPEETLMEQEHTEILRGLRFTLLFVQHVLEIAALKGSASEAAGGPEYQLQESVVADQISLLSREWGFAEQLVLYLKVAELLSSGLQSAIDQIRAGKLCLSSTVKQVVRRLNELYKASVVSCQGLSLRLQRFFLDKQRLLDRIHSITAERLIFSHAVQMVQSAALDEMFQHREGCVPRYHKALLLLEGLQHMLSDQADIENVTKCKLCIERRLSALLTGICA
Summary of the method: (§1)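 A single concentration of 1 uM, in DMSO, is applied across the kinase panel. Activity against an individual enzyme is assigned where % control is less than 35.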

[2] = target: T2, scanMAX Kinase assay panel (Homo sapiens, UniProt P54764); conditions: EPHA4; 1 uM; read-out: Percent Control (%)
T2 construct: purchased DiscoverX
Summary of the method: as §1

[3] = target: T3, scanMAX Kinase assay panel (Homo sapiens, UniProt Q96PN8); conditions: TSSK3; 1 uM; read-out: Percent Control (%)
T3 construct: purchased DiscoverX
T3 sequence (Q96PN8 1-268): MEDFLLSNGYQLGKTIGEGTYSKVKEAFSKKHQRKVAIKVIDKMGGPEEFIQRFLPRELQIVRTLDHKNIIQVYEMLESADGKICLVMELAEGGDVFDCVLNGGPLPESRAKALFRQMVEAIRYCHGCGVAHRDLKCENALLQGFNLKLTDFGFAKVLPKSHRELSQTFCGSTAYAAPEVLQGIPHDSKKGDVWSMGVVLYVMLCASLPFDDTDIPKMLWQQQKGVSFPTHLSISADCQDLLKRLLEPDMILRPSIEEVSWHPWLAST
Summary of the method: as §1

[4] = target: T4, scanMAX Kinase assay panel (Homo sapiens, UniProt O60331); conditions: PIP5K1C; 1 uM; read-out: Percent Control (%)
T4 construct: purchased DiscoverX
Summary of the method: as §1

[5] = target: T5, scanMAX Kinase assay panel (Homo sapiens, UniProt P19525); conditions: PRKR; 1 uM; read-out: Percent Control (%)
T5 construct: purchased DiscoverX
Summary of the method: as §1

[6] = target: T6, scanMAX Kinase assay panel (Homo sapiens, UniProt Q8IW41); conditions: MAPKAPK5; 1 uM; read-out: Percent Control (%)
T6 construct: purchased DiscoverX
T6 sequence (Q8IW41 1-473): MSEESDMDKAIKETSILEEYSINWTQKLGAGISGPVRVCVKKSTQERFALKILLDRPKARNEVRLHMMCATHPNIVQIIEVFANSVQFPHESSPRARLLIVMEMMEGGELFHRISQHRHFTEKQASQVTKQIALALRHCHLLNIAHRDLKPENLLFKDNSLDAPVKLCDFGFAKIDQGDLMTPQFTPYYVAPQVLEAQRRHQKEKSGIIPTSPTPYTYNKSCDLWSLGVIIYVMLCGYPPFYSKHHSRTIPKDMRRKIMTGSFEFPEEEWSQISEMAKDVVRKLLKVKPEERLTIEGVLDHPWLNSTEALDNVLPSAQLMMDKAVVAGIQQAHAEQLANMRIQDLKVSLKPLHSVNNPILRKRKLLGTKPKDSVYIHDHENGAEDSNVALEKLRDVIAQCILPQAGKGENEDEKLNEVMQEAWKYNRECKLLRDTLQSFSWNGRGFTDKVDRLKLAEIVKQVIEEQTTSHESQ
Summary of the method: as §1

T2 sequence (P54764 20-986): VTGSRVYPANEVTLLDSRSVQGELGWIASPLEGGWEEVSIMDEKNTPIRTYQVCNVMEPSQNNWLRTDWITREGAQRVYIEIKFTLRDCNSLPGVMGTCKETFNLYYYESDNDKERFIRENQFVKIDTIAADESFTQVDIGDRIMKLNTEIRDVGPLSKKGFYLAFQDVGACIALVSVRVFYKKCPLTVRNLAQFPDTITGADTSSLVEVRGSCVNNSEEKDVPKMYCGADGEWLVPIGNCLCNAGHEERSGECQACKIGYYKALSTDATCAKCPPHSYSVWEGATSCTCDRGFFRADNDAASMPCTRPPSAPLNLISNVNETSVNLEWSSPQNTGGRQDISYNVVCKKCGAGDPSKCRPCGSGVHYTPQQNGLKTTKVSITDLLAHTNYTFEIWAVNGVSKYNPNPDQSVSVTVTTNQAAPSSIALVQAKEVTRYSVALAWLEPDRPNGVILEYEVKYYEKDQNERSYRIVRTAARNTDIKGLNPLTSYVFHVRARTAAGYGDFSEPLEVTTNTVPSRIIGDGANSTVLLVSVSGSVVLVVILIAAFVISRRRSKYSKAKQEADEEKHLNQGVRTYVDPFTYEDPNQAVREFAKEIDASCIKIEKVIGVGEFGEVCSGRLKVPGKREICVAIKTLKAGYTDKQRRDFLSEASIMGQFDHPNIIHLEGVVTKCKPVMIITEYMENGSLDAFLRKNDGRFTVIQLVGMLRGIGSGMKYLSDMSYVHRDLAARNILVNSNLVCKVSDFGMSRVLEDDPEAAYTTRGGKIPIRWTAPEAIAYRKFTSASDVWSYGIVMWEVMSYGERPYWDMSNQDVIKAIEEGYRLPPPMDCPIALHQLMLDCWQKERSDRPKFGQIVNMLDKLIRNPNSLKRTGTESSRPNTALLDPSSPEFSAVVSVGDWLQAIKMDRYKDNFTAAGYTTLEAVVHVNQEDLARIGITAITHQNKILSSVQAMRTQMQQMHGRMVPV
T4 sequence (O60331 whole entry): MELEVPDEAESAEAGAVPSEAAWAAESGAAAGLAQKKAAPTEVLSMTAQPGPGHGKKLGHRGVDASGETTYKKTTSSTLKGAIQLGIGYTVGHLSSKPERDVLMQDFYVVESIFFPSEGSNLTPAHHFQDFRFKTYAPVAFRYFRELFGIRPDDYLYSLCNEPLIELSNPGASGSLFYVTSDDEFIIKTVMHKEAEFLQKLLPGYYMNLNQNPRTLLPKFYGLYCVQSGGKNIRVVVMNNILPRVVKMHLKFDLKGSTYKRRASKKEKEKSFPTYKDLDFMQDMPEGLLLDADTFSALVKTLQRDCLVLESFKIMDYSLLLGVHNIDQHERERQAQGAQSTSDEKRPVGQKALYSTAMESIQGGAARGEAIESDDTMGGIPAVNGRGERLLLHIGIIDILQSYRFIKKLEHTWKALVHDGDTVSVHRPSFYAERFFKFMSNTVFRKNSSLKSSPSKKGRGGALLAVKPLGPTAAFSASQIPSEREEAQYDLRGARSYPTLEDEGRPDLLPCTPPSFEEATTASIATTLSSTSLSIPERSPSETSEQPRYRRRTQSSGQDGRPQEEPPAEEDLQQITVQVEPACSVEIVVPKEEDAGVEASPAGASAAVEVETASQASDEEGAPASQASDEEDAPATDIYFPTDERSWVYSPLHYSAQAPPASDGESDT
T5 sequence (P19525 whole entry): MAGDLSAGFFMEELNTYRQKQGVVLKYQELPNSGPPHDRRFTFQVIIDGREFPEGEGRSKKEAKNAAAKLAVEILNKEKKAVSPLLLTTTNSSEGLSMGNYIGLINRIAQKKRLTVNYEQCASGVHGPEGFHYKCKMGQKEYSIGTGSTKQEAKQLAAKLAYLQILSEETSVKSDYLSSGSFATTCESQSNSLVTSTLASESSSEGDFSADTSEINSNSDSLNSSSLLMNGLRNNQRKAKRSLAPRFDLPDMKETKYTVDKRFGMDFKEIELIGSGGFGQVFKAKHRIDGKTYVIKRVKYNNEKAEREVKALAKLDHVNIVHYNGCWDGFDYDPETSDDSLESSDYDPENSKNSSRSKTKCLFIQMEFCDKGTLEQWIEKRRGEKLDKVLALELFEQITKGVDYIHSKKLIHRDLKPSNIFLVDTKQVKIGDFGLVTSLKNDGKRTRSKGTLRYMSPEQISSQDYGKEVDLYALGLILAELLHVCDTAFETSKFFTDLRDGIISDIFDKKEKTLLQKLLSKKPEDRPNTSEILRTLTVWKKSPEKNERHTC

Row | SMILES | remaining binding at 1 µM [1] [%] | remaining binding at 1 µM [2] [%] | remaining binding at 1 µM [3] [%] | remaining binding at 1 µM [4] [%] | remaining binding at 1 µM [5] [%] | remaining binding at 1 µM [6] [%]
1 | Cc1ccc(NC(=O)C2(C(=O)Nc3ccc(F)cc3)CC2)cc1C#Cc1cnc2c(Nc3cnn(C(C)C)c3)cccn12 [Example 78] | 100 | 91 | 100 | 92 | 100 | 100
2 | Cc1cn(-c2cc(NC(=O)c3ccc(C)c(C#Cc4cnc5c(Nc6cnn(C)c6)cccn45)c3)cc(C(F)(F)F)c2)cn1 [Example 12, 4-methyl-N-(3-(4-methyl-1H-imidazol-1-yl)-5-(trifluoromethyl)phenyl)-3-((8-((1-methyl-1H-pyrazol-4-yl)amino)imidazo[1,2-a]pyridin-3-yl)ethynyl)benzamide] | 100 | 24 | 100 | 71 | 89 | 100
3 | Cc1ccc(C(=O)Nc2ccc(CN3CCN(C)CC3)c(C(F)(F)F)c2)cc1C#Cc1cnc2c(Nc3cnn(C)c3)cccn12 [Example 1, 4-methyl-3-((8-((1-methyl-1H-pyrazol-4-yl)amino)imidazo[1,2-a]pyridin-3-yl)ethynyl)-N-(4-((4-methylpiperazin-1-yl)methyl)-3-(trifluoromethyl)phenyl)benzamide] | 68 | 1 | 95 | 88 | 80 | 100
